Results as given in patent US9657064B2, “Cell penetrating peptides” (UNIVERSITE DE GENEVE, priority 2012, dated 2017).

Key:
[1] = tested on: ovalbumin-specific CD8+ T cells; test: Vaccination of mice with CPP-OVA fusion polypeptides, multimer staining of splenocytes (Example 3); assay type: in vivo; conditions: 2 s.c. vaccinations at 14 days of interval, 20 μg fusion polypeptide + 100 μg anti-CD40, 50 μg poly-IC i.m., PBS control 0.18%
Procedure: Mice were vaccinated twice sub-cutaneously at 14 days of interval with 20 μg of each CPPs-OVA fusion polypeptides and 100 μg anti-CD40, 50 μg poly-IC was injected intramuscularly 10 days after the boost, the mice were sacrificed and the splenocytes stained with a multimer and anti-CD8. Negative control with PBS (A); CPP1-OVA (B); CPP2-OVA (C).
To test the capacity of the polypeptides corresponding to constructs 1 and 2 to stimulate antigen-specific CD8^+ T cells in more stringent conditions, they were tested in vivo in a vaccination protocol (FIG. 2). In order to elicit an in vivo response, the polypeptide vaccine must be taken up by naturally present antigen presenting cells in the injected animal, and stimulation of polyclonal T cells must be highly efficient if ovalbumin-specific T cells are to be detected ex vivo. The read-out for these experiments was flow cytometry of splenocytes, using MHC-peptide multimers to detect ovalbumin-specific CD8^+ T cells.

[2] = tested on: human lymphoid cells K562; test: In vitro transduction of fluorescein-labeled CPP-OVA fusion polypeptides, flow cytometry; assay type: cell-based; conditions: 0.9 μM, 2 h at 37° C., ratio of mean fluorescence index between cells alone and loaded cells
Procedure: (§1) Transduction into cells was monitored using different CPP-OVA fusion polypeptides comprising CPP1, CPP2, CPP8, or CPP10. Each of these CPPs fused with the immunodominant CD8^+ T cell epitope from ovalbumin were chemically synthesized and labeled with fluorescein. 5.10^5 cells were incubated for 2 h at 37° C. with 0.9 μM of the different fusion polypeptides. The cells tested were human lymphoid cells K562, murine lymphoid cells EL4, human astrocytoma cells U251 and murine astrocytoma cells GL261. The cells were washed in an acid buffer to remove all the membrane bound peptide and stained for viability with Live-Dead Yellow. Analysis was performed by flow cytometry. The index of fluorescence indicates the level of fluorescence above the natural auto-fluorescence of the cells. It is the ratio of the mean fluorescence index measured by flow cytometry between the cells alone and the cells loaded with CPP-OVA fusion polypeptides.

[3] = tested on: human astrocytoma cells U251; test: as above; assay type: cell-based; conditions: 0.9 μM, 2 h at 37° C., ratio of mean fluorescence index between cells alone and loaded cells
Procedure: as §1

[4] = tested on: murine astrocytoma cells GL261; test: as above; assay type: cell-based; conditions: 0.9 μM, 2 h at 37° C., ratio of mean fluorescence index between cells alone and loaded cells
Procedure: as §1

[5] = tested on: murine lymphoid cells EL4; test: as above; assay type: cell-based; conditions: 0.9 μM, 2 h at 37° C., ratio of mean fluorescence index between cells alone and loaded cells
Procedure: as §1

[6] = tested on: ovalbumin CD8+ epitope specific immune response; test: In vivo vaccination of mice with different CPP-OVA fusion polypeptides, Pentamer staining in blood (Example 5); conditions: for Fold increase in proliferation compared to CPP14: 10 nmol s.c. twice at 14 days of interval, with anti-CD40 and poly-IC, relative to CPP14-OVA reference
Procedure: The experiment was performed as described in Example 3.
Four to eight mice per group were vaccinated twice subcutaneously at 14 days of interval with 10 nmol of fusion polypeptides comprising one of the CPPs indicated in Table 2 fused to the ovalbumin CD8^+ epitope (SEQ ID NO: 3) flanked by the spacers of SEQ ID NO: 11 and SEQ ID NO: 12 at the N-terminal and C-terminal part of the CD8^+ epitope, respectively. Each CPP-OVA fusion polypeptide was injected in PBS with 100 μg anti-CD40. 50 μg poly-IC was injected intramuscularly 7 days after the second vaccination. Immune response was monitored in the blood with a Pentamer staining followed by flow cytometry analysis.
The results are presented in Table 3 as fold increase relative to a CPP-OVA fusion polypeptide of reference comprising CPP14 of SEQ ID NO: 22.

Which “CD8+ T cells multimer positive (ovalbumin-specific CD8+ T cells)” value [1] does the source give for “KRYKNRVASRKSRAKFKQLLQHYREVAAAKEQLESIINFEKLTEWT [construct 2]” here?
Its value is “over 1%”.

What does the source list for KRYKNRVASRKSRAKFK (CCP1) [CPP1]?
index of fluorescence [2]: 3; index of fluorescence [3]: 4.5; index of fluorescence [4]: 2.4; index of fluorescence [5]: 4.8; Fold increase in proliferation compared to CPP14 [6]: 1.74

Which results are given for KRYKNRVASRKSRAKFKQLLQHYREVAAAK [CPP2]?
index of fluorescence [2]: 15; index of fluorescence [3]: 25.1; index of fluorescence [4]: 20.8; index of fluorescence [5]: 57.7; Fold increase in proliferation compared to CPP14 [6]: 1.41

QHYREVAAAKSSEND [CPP8] was tested. Which index of fluorescence [2] did it give?
The index of fluorescence was 1.9.

And the index of fluorescence [3]?
The index of fluorescence was 2.

What about the index of fluorescence [4] of the same sequence?
Its index of fluorescence is 1.4.

What about the index of fluorescence [5] of the same sequence?
Its index of fluorescence is 2.5.

What about the “Fold increase in proliferation compared to CPP14” value (from here on “Fold increase in proliferation”) [6] of the same sequence?
The value was 1.28.

REVAAAKSSENDRLRLLLK [CPP10] was tested. Which index of fluorescence [2] did it give?
The index of fluorescence was 3.7.

What about the index of fluorescence [3] of the same sequence?
Its index of fluorescence is 4.

What about the index of fluorescence [4] of the same sequence?
Its index of fluorescence is 1.9.

And the index of fluorescence [5]?
The index of fluorescence was 4.

What about the “Fold increase in proliferation” value [6] of the same sequence?
The value was 2.17.

“KRYKNRVA [CPP7, 8-amino acid-long fragment of Zebra, positions 178 to 185; negative control, tested as CPP-OVA fusion, reference compound]” was tested. Which “immunogenic potential compared to the reference fusion polypeptide comprising CPP14” value ([6]; 10 nmol s.c. twice) did it give?
The value was “lower immunogenic potential”.

And the “Fold increase in proliferation” value [6]?
Its value is 0.65.
